Type in all cases: cell-based
Experiment [1] concerns Staphylococcus aureus ATCC 6538. Briefly: MIC, agar incorporation test. The conditions noted are these: ATCC6538, 24 hours at 37° C. The method, then: (§1) Determination of the Minimum Inhibitory Concentration (MIC) in the Agar Incorporation Test (MIC Test) [table] The plates are incubated at 37° C. for 24 hours (A. niger at 28° C. for 3 days) and then the highest dilution (lowest concentration) of the test substance at which growth is just no longer discernible (corresponds to the MIC) is determined.

For experiment [2], the system named is biofilm of a defined mixed culture of various gram+ and gram− oral micro-organisms and a yeast (Candida albicans). Put plainly: Activity in the biofilm model (supragingival plaque on hydroxyapatite discs). An excerpt: Testing the Activity of 2-tert-butyl-4-n-octylamino-6-pyrid-2-yl-1,3,5-triazine (140) in the Biofilm Model Principle: See Guggenheim et al. (2001), “Validation of an in vitro biofilm model of supragingival plaque”, J. Dent Res. 80 (1). Hydroxyapatite discs are pre-treated with human saliva and a biofilm of a defined mixed culture of various gram+ and gram− oral micro-organisms (Streptococci, Actinomyces sp., Veillonella & Fusobacterium sp. and others) and a yeast (Candida albicans) is allowed to grow on the hydroxyapatite. Over the course of the test, which lasts a total of 4 days, the discs are immersed several times in an application formulation of the substance (0.5% (140)). Finally, the biofilm is harvested and the living cell count is determined.

Experiment [3] concerns Candida albicans ATCC 10231. Put plainly: MIC, agar incorporation test. Conditions: ATCC10231, 24 hours at 37° C. The method, then:
as §1

Experiment [4] has as its system Escherichia coli ATCC 10536. Briefly: MIC, agar incorporation test. Conditions: ATCC10536, 24 hours at 37° C. The method, then:
as §1

Experiment [5] has as its system Staphylococcus epidermidis ATCC 12228. Put plainly: MIC, agar incorporation test. Conditions: ATCC12228, 24 hours at 37° C. The method, then: as §1
Experiment [6] has as its system Propionibacterium acnes ATCC 6919. Put plainly: MIC, agar incorporation test. The conditions noted are these: Cutibacterium acnes, ATCC6919, 24 hours at 37° C. The method, then: as §1
Experiment [7] relates to Corynebacterium xerosis ATCC 373. Briefly: MIC, agar incorporation test. The conditions noted are these: ATCC373, 24 hours at 37° C. As to the method: as §1
The subject of experiment [8] is Proteus vulgaris ATCC 6896. Briefly: MIC, agar incorporation test. Conditions: ATCC6896, 24 hours at 37° C. As to the method: as §1
For experiment [9], the system named is Pseudomonas aeruginosa ATCC 15442. Briefly: MIC, agar incorporation test. Conditions: ATCC15442, 24 hours at 37° C. The method, then:
as §1

Experiment [10] has as its system Salmonella choleraesuis ATCC 9184. Put plainly: MIC, agar incorporation test. Conditions: Salmonella enterica, 24 hours at 37° C. As to the method: as §1
The subject of experiment [11] is Klebsiella pneumoniae ATCC 4352. Put plainly: MIC, agar incorporation test. The conditions noted are these: ATCC4352, 24 hours at 37° C. As to the method:
as §1

Experiment [12] relates to Aspergillus niger ATCC 6275. Put plainly: MIC, agar incorporation test. The conditions noted are these: ATCC6275, 72 h, 28° C. for 3 days. The method, then: as §1
The subject of experiment [13] is Escherichia coli NCTC 8196. Briefly: MIC, agar incorporation test. Conditions: NCTC8196, 24 hours at 37° C. As to the method: as §1
Experiment [14] deals with C. minutissimum ATCC 23348. Briefly: MIC, agar incorporation test. The conditions noted are these: Corynebacterium minutissimum, ATCC23348, 24 hours at 37° C. The method, then:
as §1

The test system of experiment [15] is Actinomyces viscosus ATCC 43146. Briefly: Substantivity on hydroxyapatite and growth-inhibiting action. Conditions: discs pre-treated with artificial saliva, 30 minutes in ethanolic solution at 5 ppm; 24 hours at 37° C.; compared to untreated control. The method, then:
Testing the Substantivity of 2-tert-butyl-4-n-octylamino-6-pyrid-2-yl-1,3,5-triazine (140) on Hydroxyapatite and Determination of the Growth-Inhibiting Action Hydroxyapatite discs (diameter 10 mm) are placed in artificial saliva (Deutsche Zahnärztliche Zeitschrift DZZ 5/2002) for 4 hours, rinsed 4 times in NaCl solution and then incubated for 30 minutes in an ethanolic solution of the test substance (140) at 5 ppm. The discs are then transferred to a Nunclon-surface titre plate (12 wells) and incubated at 37° C. for 24 hours in CASO nutrient medium inoculated with Actinomyces viscosus ATCC 43146 (about 10^5/ml).

Molecules are shown by their SMILES.

Usually MIC stands for the lowest concentration that inhibits growth of the organism. A low value points to a more susceptible organism. As to `CCCCCCCCCCCC(=O)Nc1nc(C)nc(-c2ccncc2)n1` [Compound of formula (123)], inhibition of growth in [1] (MIC) required 8 µg/mL.

`CCCCCCNc1nc(C)nc(-c2ccccn2)n1` [Compound of formula (131)] registered an MIC in [1] of 30 µg/mL.

On to `CCCCCCNc1nc(C)nc(-c2cccnc2)n1` [Compound of formula (135)], for which it took 60 µg/mL to inhibit growth in experiment [1] (MIC).

`CCCCCCCCNc1nc(-c2ccccn2)nc(C(C)(C)C)n1` [Compound of formula (140), 2-tert-butyl-4-n-octylamino-6-pyrid-2-yl-1,3,5-triazine]: the “action on microbial count of the biofilm (in words)” value in experiment [2] (compared to placebo formulation and control containing 10% ethanol) is “clear reduction in the microbial count”. In addition, the “living cell count of biofilm (Mean)” value in experiment [2] (hydroxyapatite discs pre-treated with human saliva, 4 days, discs immersed several times in application formulation (0.5% (140))) is 1.1 × 10^5 CPU/disc. Further, the MIC is over 120 µg/mL in experiment [3]; 60 µg/mL in experiment [4]; 120 µg/mL in experiment [5]; 0.94 µg/mL in experiment [6]; 0.94 µg/mL in [7]; 0.94 µg/mL in [1]. Further, the MIC was over 120 µg/mL in experiment [8]; over 120 µg/mL in experiment [9]; 120 µg/mL in experiment [10]; 120 µg/mL in experiment [11]; over 120 µg/mL in experiment [12]; 60 µg/mL in [13]. Besides, in [14], the MIC was determined as 0.94 µg/mL. Moreover, the “inhibition of the growth of Actinomyces viscosus following adsorption onto hydroxyapatite discs” value in experiment [15] is given as “inhibition of the growth”.

These data come from US7208597B2, “Pyridyl-triazine derivatives as microbiocidal active substances” (Ciba Specialty Chemicals Corporation, priority 2002, dated 2007).
